Read-outs that look alike come from different tables or passages of the source.
Legend:
[1] = system: B6.Cg-Tg(HCRT-MJD)1Stak/J (Atax) mouse model of NT1; assay: Wake promoting efficacy, piezoelectric sleep/wake monitoring, Atax mice; type: in vivo; details: dosed 5 h after light onset
Description: (§1) Wake-promoting efficacy of the compounds of the present disclosure may be evaluated in a model (e.g., the B6.Cg-Tg(HCRT-MJD)1Stak/J (Atax) mouse model of NT1 and wild type (WT) colony mates). The model (e.g., mouse model) may be monitored for rapid, non-invasive classification of sleep and wakefulness by unsupervised machine learning on physiologically relevant readouts, such as body movement and breath rate, after dosing of a compound of the present disclosure (e.g., oral dosing).
(§2) Wake-promoting efficacy was evaluated in the B6.Cg-Tg(HCRT-MJD)1Stak/J (Atax) mouse model of NT1 and wild type (WT) colony mates. Mice were monitored in home cages using piezoelectric sensors for rapid, non-invasive classification of sleep and wakefulness by unsupervised machine learning on physiologically relevant readouts, such as body movement and breath rate. Piezoelectric detection is highly correlated with conventional time-intensive electroencephalogram/electromyography measures of sleep/wake states in both WT and NT1 mice. In a counterbalanced design, mice were orally dosed at 5 h after light onset with test articles at 0 (vehicle), 3 and 30 mg/kg.

[2] = target: T1, human orexin type 2 receptor (hOX2R) (Homo sapiens, UniProt O43614); assay: Measurement of orexin type 2 receptor agonist activity (FLIPR calcium fluorescence); type: cell-based; details: CHO cells expressing hOX2R, FLIPR calcium fluorescence; for EC50: read-out: hOx2 pEC50 (converted); for Emax: CHO, read-out: hOx2 Emax (%)
T1 construct: expressed in transfected cells
T1 sequence (O43614 1-444): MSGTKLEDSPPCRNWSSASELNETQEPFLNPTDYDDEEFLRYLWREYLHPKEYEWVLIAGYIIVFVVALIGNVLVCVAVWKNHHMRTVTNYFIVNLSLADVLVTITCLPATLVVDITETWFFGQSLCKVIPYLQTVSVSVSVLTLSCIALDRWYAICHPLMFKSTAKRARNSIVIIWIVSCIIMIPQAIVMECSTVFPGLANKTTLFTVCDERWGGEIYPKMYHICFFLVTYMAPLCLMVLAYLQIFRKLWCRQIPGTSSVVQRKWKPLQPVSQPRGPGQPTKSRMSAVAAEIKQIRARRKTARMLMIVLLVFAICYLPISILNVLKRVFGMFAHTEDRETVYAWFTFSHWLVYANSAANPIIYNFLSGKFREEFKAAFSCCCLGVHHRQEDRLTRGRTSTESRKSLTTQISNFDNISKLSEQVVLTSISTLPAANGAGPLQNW
How it was run: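 Agonism was read as fluorescence in cells stably expressing human OX2R. E. is the response at 10 μM relative to orexin A as full agonist (100%).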

[3] = system: wild type (WT) colony mates; assay: Wake promoting efficacy, piezoelectric sleep/wake monitoring, wild type mice; type: in vivo, mouse; details: oral dose 30 mg/kg, dosed 5 h after light onset
Description: as §1, §2

mouse models = details: cited from earlier work
individuals with NT1 = details: cited from earlier work

Structure (SMILES) | EC50 [2] [nM] | Emax [2] [%] | other results
O=C([C@H]1CCO1)N1CC2(CC2)[C@H](NS(=O)(=O)CF)[C@@H]1Cc1cc(F)cc(-c2ccccc2)c1F [Compound 145, N-((6S,7S)-6-((2,5-difluoro-[1,1′-biphenyl]-3-yl)methyl)-5-((R)-oxetane-2-carbonyl)-5-azaspiro[2.4]heptan-7-yl)-1-fluoromethanesulfonamide] | 0.0794 to 1 | 90 to 100 | Wake % time 1 h post dose (increase from vehicle) ([1]; oral dose 3 mg/kg, 3 mg/kg): 26.9%; Wake % time 1 h post dose (increase from vehicle) ([1]; oral dose 3 mg/kg, listed as 59, 3 mg/kg): 35.5%; Wake % time 1 h post dose (increase from vehicle) ([1]; oral dose 30 mg/kg, 30 mg/kg): 28.3%; Wake % time 1 h post dose (increase from vehicle) ([1]; oral dose 30 mg/kg, listed as 59, 30 mg/kg): 48.6%; Wake % time 1 h post dose (increase from vehicle) ([3]; 30 mg/kg): 25.8%; Wake % time 1 h post dose (increase from vehicle) ([3]; listed as 59, 30 mg/kg): 21.1%
O=C([C@H]1CCO1)N1CC2(CC2)[C@H](NS(=O)(=O)C(F)F)[C@@H]1Cc1cccc(-c2ccccc2)c1F [Compound 144, 1,1-difluoro-N-((6S,7S)-6-((2-fluoro-[1,1′-biphenyl]-3-yl)methyl)-5-((R)-oxetane-2-carbonyl)-5-azaspiro[2.4]heptan-7-yl)methanesulfonamide] | 0.0794 to 1 | 90 to 100 | Wake % time 1 h post dose (increase from vehicle) ([1]; oral dose 3 mg/kg): 26.7%; Wake % time 1 h post dose (increase from vehicle) ([1]; oral dose 30 mg/kg): 29.2%; Wake % time 1 h post dose (increase from vehicle) [3]: 27.2%
CS(=O)(=O)N[C@@H]1[C@H](Cc2cccc(-c3ccccc3)c2F)N(C(=O)[C@H]2CCO2)CC12CC2 (single isomer, unassigned) [Example 21] | – | – | Wake % time 1 h post dose (increase from vehicle) ([1]; oral dose 3 mg/kg): 17.5%; Wake % time 1 h post dose (increase from vehicle) ([1]; oral dose 30 mg/kg): 27.9%; Wake % time 1 h post dose (increase from vehicle) [3]: 14.4%
COC(=O)N1CCC[C@H](NS(C)(=O)=O)[C@@H]1CO[C@H]1CC[C@@H](c2ccccc2)CC1 [TAK-925] | – | – | wakefulness (mouse models; subcutaneous, WT mice): modestly increased wakefulness; cataplexy (individuals with NT1): trends for decreasing cataplexy; wakefulness (individuals with NT1): substantial levels of increased wakefulness
CCS(=O)(=O)N[C@@H]1[C@H](Cc2cccc(-c3cccc(F)c3)c2F)N(C(=O)[C@H]2CCO2)CC12CC2 [Compound 129, N-((6S,7S)-6-((2,3′-difluoro-[1,1′-biphenyl]-3-yl)methyl)-5-((R)-oxetane-2-carbonyl)-5-azaspiro[2.4]heptan-7-yl)ethanesulfonamide] | 0.0794 to 1 | 90 to 100 | Wake % time 1 h post dose (increase from vehicle) ([1]; oral dose 30 mg/kg): 25.0%; Wake % time 1 h post dose (increase from vehicle) [3]: 19.3%
COc1ccc(-c2cccc(C(=O)N(C)C)c2)cc1S(=O)(=O)Nc1cccc(NCCNC(=O)c2ccccc2N(C)C)c1 [YNT-185] | – | – | sleep-onset REM periods and cataplexy-like events (mouse models; NT1 mouse model): decrease sleep-onset REM periods and cataplexy-like events; wakefulness (mouse models; intraperitoneally or ICV, wild type (WT) and orexin ligand-deficient mice): modestly increases wakefulness
O=C([C@H]1CCO1)N1CC2(CC2)[C@H](NS(=O)(=O)C(F)F)[C@@H]1Cc1cccc(-c2cccc(F)c2)c1F [Compound 154, N-((6S,7S)-6-((2,3′-difluoro-[1,1′-biphenyl]-3-yl)methyl)-5-((R)-oxetane-2-carbonyl)-5-azaspiro[2.4]heptan-7-yl)-1,1-difluoromethanesulfonamide] | 0.0794 to 1 | 90 to 100 | Wake % time 1 h post dose (increase from vehicle) ([1]; oral dose 3 mg/kg): 24.4%; Wake % time 1 h post dose (increase from vehicle) ([1]; oral dose 30 mg/kg): 24.5%
O=C([C@H]1CCO1)N1CC2(CC2)[C@H](NS(=O)(=O)C(F)F)[C@@H]1Cc1cccc(-c2cc(F)cc(F)c2)c1F [Compound 175] | 0.0794 to 1 | 90 to 100 | Wake % time 1 h post dose (increase from vehicle) ([1]; oral dose 3 mg/kg): 25.3%; Wake % time 1 h post dose (increase from vehicle) ([1]; oral dose 30 mg/kg): 29%
O=C([C@H]1C[C@H](F)C1)N1CC2(CC2)[C@H](NS(=O)(=O)C(F)F)[C@@H]1Cc1cccc(-c2ccccc2)c1F [Compound 182, 1,1-difluoro-N-((6S,7S)-6-((2-fluoro-[1,1′-biphenyl]-3-yl)methyl)-5-((1r,3r)-3-fluorocyclobutane-1-carbonyl)-5-azaspiro[2.4]heptan-7-yl)methanesulfonamide] | 1 to 10 | 90 to 100 | –
O=C([C@H]1CCO1)N1CC2(CC2)[C@H](NS(=O)(=O)C2CC2)[C@@H]1Cc1cccc(-c2ccccc2)c1 [Compound 42, N-((6S,7S)-6-([1,1′-biphenyl]-3-ylmethyl)-5-((R)-oxetane-2-carbonyl)-5-azaspiro[2.4]heptan-7-yl)cyclopropanesulfonamide] | 1 to 10 | 90 to 100 | –
CS(=O)(=O)N[C@@H]1[C@H](Cc2cccc(-c3ccccc3)c2F)N(C(=O)[C@H](O)C(F)F)CC12CC2 [Compound 351, N-((6S,7S)-5-((S)-3,3-difluoro-2-hydroxypropanoyl)-6-((2-fluoro-[1,1′-biphenyl]-3-yl)methyl)-5-azaspiro[2.4]heptan-7-yl)methanesulfonamide] | 10 to 100 | 90 to 100 | –
[2H]c1c([2H])c([2H])c(-c2cccc(C[C@H]3[C@@H](NS(=O)(=O)CF)C4(CC4)CN3C(=O)[C@H]3CCO3)c2F)c([2H])c1[2H] [Compound 365, 1-fluoro-N-((6S,7S)-6-((2-fluoro-[1,1′-biphenyl]-3-yl-2′,3′,4′,5′,6′-d5)methyl)-5-((R)-oxetane-2-carbonyl)-5-azaspiro[2.4]heptan-7-yl)methanesulfonamide] | 1 to 10 | 90 to 100 | –
COc1c(C[C@H]2[C@@H](NS(C)(=O)=O)C3(CC3)CN2C(=O)C2CC(F)C2)cccc1-c1ccccc1 (stereo partly drawn) [Compound 339, N-((6S,7S)-5-(3-fluorocyclobutane-1-carbonyl)-6-((2-methoxy-[1,1′-biphenyl]-3-yl)methyl)-5-azaspiro[2.4]heptan-7-yl)methanesulfonamide] | – | 70 to 80 | hOx2 pEC50 [2]: *** (pEC50 ranging between 7.0 and 8.0)
CC(F)(F)C(=O)N1CC2(CC2)[C@H](NS(=O)(=O)CF)[C@@H]1Cc1cccc(-c2cccc(F)c2)c1F [Compound 179, N-((6S,7S)-6-((2,3′-difluoro-[1,1′-biphenyl]-3-yl)methyl)-5-(2,2-difluoropropanoyl)-5-azaspiro[2.4]heptan-7-yl)-1-fluoromethanesulfonamide] | 1 to 10 | 70 to 80 | –
C[C@H](O)CN(C)C(=O)N1CC2(CC2)[C@H](NS(C)(=O)=O)[C@@H]1Cc1cccc(-c2ccccc2)c1F [Compound 323, (6S,7S)-6-((2-fluoro-[1,1′-biphenyl]-3-yl)methyl)-N-((S)-2-hydroxypropyl)-N-methyl-7-(methylsulfonamido)-5-azaspiro[2.4]heptane-5-carboxamide] | 1 to 10 | 90 to 100 | –
CS(=O)(=O)N[C@@H]1[C@H](Cc2cccc(-c3ccccc3)c2F)N(C(=O)NC[C@@H]2CCOC2)CC12CC2 [Compound 329, (6S,7S)-6-((2-fluoro-[1,1′-biphenyl]-3-yl)methyl)-7-(methylsulfonamido)-N-(((S)-tetrahydrofuran-3-yl)methyl)-5-azaspiro[2.4]heptane-5-carboxamide] | 1 to 10 | 90 to 100 | –
[2H]c1c([2H])c([2H])c(-c2cccc(C[C@H]3[C@@H](NS(=O)(=O)C(F)F)C4(CC4)CN3C(=O)[C@H]3CCO3)c2F)c([2H])c1[2H] [Compound 173, 1,1-difluoro-N-((6S,7S)-6-((2-fluoro-[1,1′-biphenyl]-3-yl-2′,3′,4′,5′,6′-d5)methyl)-5-((R)-oxetane-2-carbonyl)-5-azaspiro[2.4]heptan-7-yl)methanesulfonamide] | 1 to 10 | 90 to 100 | –
C[C@H](CF)NC(=O)N1CC2(CC2)[C@H](NS(=O)(=O)CF)[C@@H]1Cc1cccc(-c2ccccc2)c1F [Compound 158] | 0.0794 to 1 | 90 to 100 | –
CS(=O)(=O)NC1C(Cc2cccc(-c3ccccc3)c2)N(C(=O)C(F)(F)F)CC12CC2 (racemic) [Compound 4, N-(6-([1,1′-biphenyl]-3-ylmethyl)-5-(2,2,2-trifluoroacetyl)-5-azaspiro[2.4]heptan-7-yl)methanesulfonamide] | 100 to 1000 | 60 to 70 | –

Source: patent US12503475B2 (Centessa Pharmaceuticals (UK) Limited, priority 2020, dated 2025)
